Test results: patent publication US11485700B2, “Synthesis of (+)-cannabinoids and their therapeutic effects” (SYMRISE AG, priority 2018, dated 2022)

Experiments:
CB1 receptor = CB1 receptor (Homo sapiens (Human), UniProt P21554); assay: In vitro binding to CB1 receptor, [3H]-CP55940 radioligand displacement
Method: (§1) Compounds with an expected profile as CB1 and/or CB2 receptor ligands were evaluated by competition studies that allow determining the affinity of these compounds (Ki values) for both receptors against a classical cannabinoid ligand. The competition studies were conducted with membranes transfected with either CB1 or CB2 receptors. For stock solutions the compounds were dissolved at concentrations of 50 and 100 mM and stored at −20° C.
(§2) 96-well plates and the tubes necessary for the experiment were siliconized with Sigmacote (Sigma). Membranes were resuspended in the corresponding buffer and were incubated with the radioligand and each compound for 90 min at 30° C. Non-specific binding was determined with 10 μM WIN55212-2 and 100% binding of the radioligand to the membrane was determined by its incubation with membrane and without any compound. Filtration was performed by a Harvester®filtermate (Perkin-Elmer) with Filtermat A GF/C filters pretreated with polyethylenimine 0.05%. After filtering, the filter was washed nine times with binding buffer, dried and a melt-on scintillation sheet (Meltilex™ A, Perkin Elmer) was melted onto it. Then, radioactivity was quantified by a liquid scintillation spectrophotometer (Wallac MicroBeta Trilux, Perkin-Elmer).
(§3) Radioligand displacement assays were used to evaluate the affinity of the new compounds using membranes from cells (HEK293EBNA) transfected with the CB1 or the CB2 receptors and [^3H]-CP55940 as radioligand. The evaluation of the compounds was conducted in two phases. The first phase consisted in a simple screening with a unique and high concentration of each compound (40 μM). The data was collected from at least three experiments performed in triplicate. […] This consisted of a competition study with [^3H]CP55940 (0.10 nM for CB1 and 0.15 nM for CB2) and different concentrations of the selected compounds (10^−4-10^−11M). The data was analyzed, by using GraphPad Prism® version 5.01 (GraphPad Software Inc., San Diego, Calif., USA), for the calculation of Ki values expressed as mean±SEM of at least three experiments performed in triplicate for each point.

CB2 receptor = CB2 receptor (Homo sapiens (Human), UniProt P34972); assay: In vitro binding to CB2 receptor, [3H]-CP55940 radioligand displacement
Method: as §1, §2, §3

[1] = test system: LPS-treated human monocytes; assay: LPS-induced inflammatory parameters in human monocytes; format: cell-based; conditions: LPS 10 ng/ml, 24 h
Method: (§4) Cell cultures: Human primary monocytes were extracted from the whole blood of medically healthy volunteers, who provided written informed consent at the local blood bank (University Hospital of Freiburg, Germany), following a standardized protocol (gradient preparation, Lymphocytes separation medium, PAN Biotech, P04-60125, Aidenbach, Germany) using completely endotoxin-free cultivation. Using 50 ml tubes, 25 ml Pancoll was loaded with 25 ml of blood (buffy coats). The gradient was established by centrifugation at 1800 rpm, 20° C. for 40 min with slow acceleration and deceleration. Peripheral blood mononuclear cells in the interphase were carefully removed and re-suspended in 50 ml pre-warmed phosphate-buffered saline (PBS) (Pan Biotech, P04-36500), followed by centrifugation for 10 min at 1600 rpm and 20° C. The supernatant was discarded and the pellet washed in 50 ml PBS and centrifuged as described above. The pellet was then re-suspended in 50 ml RPMI-1640 low-endotoxin medium supplemented with 10% human serum (Hexcell, Berlin, Germany, SP2080). After counting the number of cells in a particle counter (Euro Diagnostics, Krefeld, Germany), cells were seeded in 24-well plates for enzyme linked immunosorbent assay (ELISA) (2.2 mio. cells/well) or 96-well plates at a density of 2×10^4 cells/well for cell viability testing, and incubated at 37° C. with 5% CO2. The medium and the non-adherent cells (lymphocytes) were removed and fresh RPMI-1640 medium containing 1% human serum added. Enriched monocytes were then ready to be used for the experiments. Primary human fibroblasts and HaCat keratinocytes were obtained from the Uniklinik Freiburg. All cells were maintained in supplemented DMEM (Invitrogen, Life-Technologies, Darmstadt, Germany) medium containing 10% FBS (Bio&Sell, Feucht, Germany) and 1% antibiotics penicillin/streptomycin (from Invitrogen, DMEM complete medium) at 37° C. in a humidified atmosphere of 5% CO2.
Measurement of cytokines and PGE2 in primary human monocytes: Cells were incubated with LPS (Sigma-Aldrich, Taufkirchen, Germany, 10 ng/ml) for 24 h. The cannabinoids (5 doses) were added 30 min before LPS treatment. After 24 h, supernatants were removed, centrifuged and investigated for IL-1beta, IL-8, IL-6, TNFalpha, MMP9, isoprostane, and PGE2 concentrations in EIAs (PGE2 and isoprostane, from Cayman/Biomol, Hamburg, Germany) or ELISAs (IL-1beta, Hiss, Freiburg, Germany; TNFalpha, IL-6 and IL-8, ImmunoTools, Frysoithe, Germany, MMP9, Biotechne, Wiesbaden, Germany) using manufacturer's protocol. The respective extinction was determined using a 96-well plate reader (Berthold, Offenburg, Germany). Each dose was analyzed 4 times in two buffy coats from 2 different donors (2 buffy coats used from 2 different healthy blood donors with final n=4 values).

[2] = test system: PolyIC-treated human keratinocytes (HaCat); assay: Poly I:C-induced proteases in human HaCat keratinocytes; format: cell-based; conditions: Poly I:C 10 μg/ml, 24 h; maximal effect, doses up to 25 μM
Method: as §4
Determination of MMPs and TIMPs in keratinocytes: Keratinocytes (HaCat) were cultivated as described above. Cells were seeded in 24-well plates incubated with Poly I:C (InvivoGen, San Diego, Calif.; USA, 10 μg/ml) in absence and presence of the cannabinoids (5 doses, n=3) for 24 h. Unstimulated cells served as a negative control. 24 h after cell stimulation, supernatants were removed, centrifuged and investigated for MMP1, MMP9 and TIMP1 concentrations by ELISAs according to the manufacturer's protocol (from Biotechne, Wiesbaden, Germany). The respective extinction was determined using a 96-well plate reader (Berthold, Offenburg, Germany).

[3] = test system: IL-1-treated human dermal fibroblasts; assay: IL-1-induced inflammatory parameters in human dermal fibroblasts; format: cell-based; conditions: 24 h
[4] = maximal effect, doses up to 25 μM

C=C(C)[C@H]1CCC(C)=C[C@@H]1c1c(O)cc(CCCCC)c(C(=O)OC)c1O [(+)-CBD-ME, (+)-Cannabidiol methylester]
Ki (CB1 receptor): 345 nM
CB1/CB2 selectivity (CB1 receptor; ratio of CB1-Ki to CB2-Ki): 12.3
Ki (CB2 receptor): 28 nM
doses increasing LPS-induced IL-8 [1]: 5 to 25 µM
doses increasing LPS-mediated IL-1beta [1]: 25 µM
inhibition of LPS-induced IL-6 [1, 4]: around 20%
inhibition of LPS-stimulated TNFalpha release [1, 4]: around 20%
inhibition of Poly I:C-stimulated TIMP1 [2]: 40%
dose that seems to be toxic in fibroblasts [3]: 25 µM
